Laboratory results published in patent US11884710B2, “Peptide compounds and methods of use in wound healing” (priority 2013, dated 2024).
Square brackets hold non-standard residues; d marks the D form. Peptide text beside a SMILES is read from it. PEG2 = NCCOCCOCCC(=O)O

Assays:
[1] = tested on: P. aeruginosa ATCC 27853; format: cell-based, Pseudomonas aeruginosa; conditions: Pseudomonas; inoculum 1×10^6 CFU/ml; 60 to 180 minute incubation
Protocol: (§1) In vitro bactericidal activity: The three peptide compounds BCC01-5RMP (SEQ ID NO:23), BCC002-5RMP (SEQ ID NO:21), and BCC003-5RMP (SEQ ID NO:22) were assayed for in vitro bactericidal activity against Pseudomonas aeruginosa, Escherichia coli, Salmonella typhimurium, and Acinetobacter baumannii. The starting inoculum for all experiments was 1×10^6 colony forming units (CFU)/ml. The CFU remaining at the end of 60 to 180 minute incubation was determined, and the data plotted as a log reduction in CFU/ml.
Table 4 further compares the activity of several other compounds, including the “5R” versions of BCC01, i.e., SEQ ID NO:20 (which comprises SEQ ID NO: 7 with five additional arginines), the “5R” version of BCC002 (i.e., SEQ ID NO:18, which comprises SEQ ID NO: 1 with five additional arginines), and the 5RMP versions of BCC01 (SEQ ID NO: 23) and BCC002 (SEQ ID NO: 21). The data generally indicate the superiority of BCC003-5RMP (SEQ ID NO:22) and BCC002-5RMP (SEQ ID NO: 21) and the superiority of the 5R or 5RMP versions of the peptide over the “AEEP only” peptide against P. aeruginosa.

[2] = tested on: Salmonella typhimurium; assay: In vitro bactericidal activity against Salmonella typhimurium; format: cell-based; conditions: inoculum 1×10^6 CFU/ml, 60 to 180 minute incubation
Protocol: as §1

[3] = tested on: Acinetobacter baumannii; assay: In vitro bactericidal activity against Acinetobacter baumannii; format: cell-based; conditions: inoculum 1×10^6 CFU/ml, 60 to 180 minute incubation
Protocol: as §1

[4] = tested on: release of TNF-α from LPS-stimulated RAW264.7 cells; assay: LPS neutralization: TNF-α release from LPS-stimulated RAW264.7 cells; format: cell-based, mouse
Protocol: (§2) The well-characterized response of RAW264.7 macrophage cells was used to produce tumor necrosis-factor-alpha (TNF-α) in response to LPS to determine whether the peptides could dampen the release of this cytokine. […] Importantly, pre-treatment (3 hours prior to LPS addition) as well as post-treatment of the RAW264.7 cells (3 hours post LPS addition) with peptide dampened the cytokine release. […] The finding that the novel peptides bind and neutralize the effect of Pseudomonas LPS is of critical importance since this ensures that the novel therapeutic peptide compounds described herein will not only kill the bacteria, but will also neutralize the LPS endotoxin released by the bacteria which plays such an important role in the rapid progression of sepsis.
(§3) BCC01-5RMP (SEQ ID NO:23), BCC002-5RMP (SEQ ID NO:21), and BCC003-5RMP (SEQ ID NO:22) were tested for their ability to bind lipopolysaccharide (LPS) using the limulus amebocyte lysate method (LAL). […] There was no statistical difference in their ability to bind LPS using the LAL technique. The ability of the peptides to neutralize LPS was assessed by determining their ability to attenuate the release of tumor necrosis factor-alpha (TNF-α) from LPS-stimulated RAW264.7 cells (a mouse macrophage cell line). […] No significant differences were observed between the three peptides to neutralize LPS as measured by cytokine release. Peptides based on sequence 120-146 (SEQ ID NOS:28-31) also bind and neutralize Pseudomonas LPS.

[5] = tested on: Escherichia coli; assay: In vitro bactericidal activity against Escherichia coli; format: cell-based; conditions: E. coli; inoculum 1×10^6 CFU/ml; 60 to 180 minute incubation
Protocol: as §1

[6] = tested on: P. aeruginosa (ATCC 27853); assay: Mouse model of Pseudomonas (bacterial) keratitis; format: in vivo; conditions: C57/BL6 mice; topical peptide 0.25 to 0.75 mg/ml; 48 hours post-infection
Protocol: A circular wound was created on the mouse cornea by removing the epithelium and infected with 10^5 colony forming units (CFU) of P. aeruginosa (ATCC® 27853™ (American Type Culture Collection, Manassas, Va.)). Infected wounds were treated with saline (0.9% sodium chloride, vehicle control) or saline containing indicated concentrations of peptide every 15 minutes for 2 hours, then every 30 minutes for 3 hours on the first day. Infected wounds were treated twice on the second day and once on the third day. Mice were killed at 48 hours post-infection, and CFU/eye were quantified. The means were plotted and are representative of 5 to 9 mice per group. Mann Whitney test was performed for each group as compared to the saline control group. *P=0.014. In compound names such as BCC02-5RMP used herein, “R” represents arginine, and “MP” represents a small PEG molecule as defined elsewhere herein (such as, for example but not by way of limitation, “AEEP”).
(§4) A circular wound was created on the mouse cornea by removing the epithelium, and the wound was infected with 10^5 CFU of P. aeruginosa (ATCC® 27853™ (American Type Culture Collection, Manassas, Va.)). Infected wounds were treated with saline or saline containing indicated concentrations (2, 5, 10, and 20 mg/ml) of peptide every 30 minutes for 6 hours on the first day. Infected wounds were treated twice on the second day and once on the third day. Mice were killed at 48 hours post-infection, and the CFU/eye were quantified. The means are plotted and are representative of 5 mice per group. Mann Whitney test was performed for each group as compared to the saline control group. *P=0.015 and **P=0.097.
as §4, with “representative of 4 to 5 mice” for “representative of 5 mice”, “control group.” for “control group. *P=0.015 and **P=0.097.”
as §4, with “group. **P=0.0079 by” for “group.”, “test” for “test was performed for each group”, “group.” for “group. *P=0.015 and **P=0.097.”
A circular wound (2 mm) was created on the mouse cornea by removing the epithelium and infecting the wound with 10^5 CFU of P. aeruginosa (ATCC® 27853™ (American Type Culture Collection, Manassas, Va.)). Infected wounds were treated with saline or saline containing indicated concentrations of peptide every 15 minutes for 2 hours, then every 30 minutes for 3 hours on the first day. […] Mice were killed at 48 hours post-infection, and the colony forming units per eye (CFU/eye) were quantified. […]

[7] = tested on: Pseudomonas LPS; assay: LPS binding, Limulus Amebocyte Lysate (LAL) assay; conditions: LAL method
Protocol: as §2, §3

[8] = tested on: Pseudomonas clinical isolate B64; assay: BIOSCREEN C growth assay, peptide plus antibiotic combinations; format: cell-based, Pseudomonas aeruginosa
Protocol: FIGS. 28A and 28B show the effect of BCC002-5R-MP (SEQ ID NO:21) in combination with Cefotaxime on MIC using Pseudomonas clinical isolate B64. Cefotaxime (Cefo) and peptide combinations included a constant amount of Cefotaxime (2.81 μg/ml) with suboptimal amounts of peptide (0, 0.34, 1.01, and 3.04 μg/ml). […] FIG. 28B is a histogram showing Fractional area (FA), which is an indication of the MIC.
FIG. 29B is a histogram showing Fractional area (FA), which is an indication of the MIC.
FIGS. 30A and 30B show the effect of BCC02-5R-MP (SEQ ID NO:21) in combination with Levofloxacin (Levo) and peptide combinations included a constant amount of Levofloxacin (3.6 μg/ml) with suboptimal amounts of peptide (0, 0.34, 1.01, 3.04 μg/ml). […] FIG. 30B is a histogram showing Fractional area (FA), which is an indication of the MIC.
The peptide and antibiotics were set up in the wells of the microtiter plate at starting ratios of MIC equivalents of antibiotic:peptide at 3:1, 1:1, and 1:3. They were serially diluted to concentrations well below suboptimal/sublethal levels of the antibiotic and peptide. The organism was added (1×10^5 CFU/well), the BIOSCREEN C™ assay (Growth Systems USA, Piscataway, N.J.) was performed, and data was collected over 24 hours.

## CC[C@H](C)[C@H](NC(=O)[C@H](CC(C)C)NC(=O)[C@H](C)NC(=O)CNC(=O)CNC(=O)[C@H](CO)NC(=O)[C@H](Cc1ccccc1)NC(=O)[C@H](Cc1c[nH]cn1)NC(=O)[C@H](CCCNC(=N)N)NC(=O)CNC(=O)[C@H](CCC(N)=O)NC(=O)[C@H](CC(N)=O)NC(=O)[C@H](CCCNC(=N)N)NC(=O)[C@H](CCCNC(=N)N)NC(=O)[C@H](CCCNC(=N)N)NC(=O)[C@H](CCCNC(=N)N)NC(=O)CCOCCOCCNC(=O)CCOCCOCCN)C(=O)N[C@@H](Cc1c[nH]cn1)C(=O)N[C@@H](C)C(=O)N[C@@H](CCCNC(=N)N)C(=O)N[C@@H](Cc1ccccc1)C(=O)N[C@H](C(=O)N[C@@H](CCSC)C(=O)N[C@H](C(=O)N[C@@H](C)C(=O)N[C@@H](C)C(=O)N[C@@H](CO)C(=O)N[C@@H](CS)C(=O)N[C@@H](Cc1ccccc1)C(=O)N[C@@H](CCC(N)=O)C(=O)N[C@@H](CCCNC(=N)N)C(=O)O)[C@@H](C)O)C(C)C [BCC02-5RMP] (H-[PEG2][PEG2]RRRRNQGRHFSGGALIHARFVMTAASCFQR-OH; C-terminus assumed)
[1]
  in vitro bactericidal activity, in words: most active
[2]
  in vitro bactericidal activity, in words: strong, but lesser activity
[3]
  in vitro bactericidal activity, in words: most active
[4]
  neutralization of LPS: attenuation of TNF-α release: attenuate the release of TNF-α
[5]
  in vitro bactericidal activity, in words: strong, but lesser activity
[6]
  CFU/eye, in words: effectively killed all bacteria and cured the infection
[7]
  binding of Pseudomonas LPS: bound Pseudomonas LPS
[8]; 3.04 μg/ml of peptide with Cefotaxime 2.81 μg/ml
  sensitivity of the bacterium to Cefotaxime with peptide, in words: now sensitive
[8]; 0.34 and 1.0 μg/ml of peptide with Cefotaxime 2.81 μg/ml
  effect of peptide on the killing effect of Cefotaxime, in words: no statistical effect

## CC[C@H](C)[C@H](NC(=O)[C@H](CC(C)C)NC(=O)[C@H](C)NC(=O)CNC(=O)CNC(=O)[C@H](CS)NC(=O)[C@H](Cc1ccccc1)NC(=O)[C@H](Cc1c[nH]cn1)NC(=O)[C@H](CCCNC(=N)N)NC(=O)CNC(=O)[C@H](CCC(N)=O)NC(=O)[C@H](CC(N)=O)NC(=O)[C@H](CCCNC(=N)N)NC(=O)[C@H](CCCNC(=N)N)NC(=O)[C@H](CCCNC(=N)N)NC(=O)[C@H](CCCNC(=N)N)NC(=O)CCOCCOCCNC(=O)CCOCCOCCN)C(=O)N[C@@H](Cc1c[nH]cn1)C(=O)N[C@@H](C)C(=O)N[C@@H](CCCNC(=N)N)C(=O)N[C@@H](Cc1ccccc1)C(=O)N[C@H](C(=O)N[C@@H](CCSC)C(=O)N[C@H](C(=O)N[C@@H](C)C(=O)N[C@@H](C)C(=O)N[C@@H](CO)C(=O)N[C@@H](CO)C(=O)N[C@@H](Cc1ccccc1)C(=O)N[C@@H](CCC(N)=O)C(=O)N[C@@H](CCCNC(=N)N)C(=O)O)[C@@H](C)O)C(C)C [BCC03-5RMP] (H-[PEG2][PEG2]RRRRNQGRHFCGGALIHARFVMTAASSFQR-OH)
[1]
  in vitro bactericidal activity, in words: most active
[2]
  in vitro bactericidal activity, in words: strong, but lesser activity
[3]
  in vitro bactericidal activity, in words: most active
[4]
  neutralization of LPS: attenuation of TNF-α release: attenuate the release of TNF-α
[5]
  in vitro bactericidal activity, in words: strong, but lesser activity
[7]
  binding of Pseudomonas LPS: bound Pseudomonas LPS
